Each structure is given as a SMILES string. Values joined by “and” are separate entries in the source; they are usually repeats but may differ in a detail not shown here. Equal values may be shown once. “Also recorded” adds a separate entry of the source.

This assay has as its system anterior chamber aqueous humor pressure load rat model. In words: Retinal thickness (IPL, INL, ONL) in retinal damage model induced by anterior chamber aqueous humor pressure load. To be noted: for Inner plexiform layer (IPL) thickness compared with the control group, in words: 300 to 900 μm from the optic disk. The format is in vivo, Rat; Slc: SD. Here is the method: • Name: Compound 9 • Source: Synthesized in the above Examples • Used amount: 0.4 mL (50 mg/mL solution) • Storage conditions: Freezing, light shielding
Method for preparing test substance (1 mg/mL): A high concentration solution prepared at 50 mg/mL was diluted 50 times with a medium to prepare a 1 mg/mL administration solution.
• Name: MK-801 • Distributor: SIGMA-ALDRICH • Use amount: 0.0501 g • Storage condition: refrigerated (2° C. to 8° C.)
Method for preparing positive control substance (10 mg/mL): 0.0501 g was weighed out and made up to a total volume of 5 mL with a control substance (physiological saline).
• Species and strains: Rat; Slc: SD • Number of animals on arrival and sex: 50 males • Age in weeks at arrival: 6 weeks old • Body weight range at arrival: 147.2 to 170.0 g • Source: Japan SLC, Inc.
Grouping was performed two days before the first creation of the retinal damage model induced by an anterior chamber aqueous humor pressure load. Using the daily body weight as an index, stratified random allocation was performed using SAS (Ver. 9.3, SAS Institute Japan Ltd.) and EXSUS (Ver. 8.0, CAC Croit Corporation) so that an average value of the body weights of each group was approximately uniform.
• Administration route: Eyedrop administration, intravenous administration • Administration method (eyedrop): Eyedrop administration was performed on a treated eye (right eye) of a rat using a micropipette 4 times a day (at intervals of 1.5 hours or more). • Administration method (intravenous): The amount of administration solution, calculated from the body weight on the day of administration, was administered from the tail vein using a syringe and an injection needle about 30 minutes before ischemic load. • Time of administration: Administration was performed according to the following schedule.
1. 10 mg/kg xylazine hydrochloride was intramuscularly administered on the model creation day (day 0). A rat was placed in an anesthesia box and subjected to general anesthesia with isoflurane (5%, oxygen:nitrous oxide=1:3). When anesthesia was effective, the rat was taken out of the anesthesia box, an inhalation anesthetic mask was worn, and anesthesia was maintained with isoflurane (1% to 5%, oxygen nitrous oxide=1:3).
2. The body temperature was maintained at 37° C. with a warming mat, and a mydrin P ophthalmic solution was instilled in the right eye (treated eye) of the rat to dilate the pupil, then the cravit ophthalmic solution 1.5% (Santen Pharmaceutical Co., Ltd.) was instilled.
3. A bottle of an IV bag containing physiological saline was previously suspended so that a water surface was 155 cm (100 mmHg or more) higher than the eye of the rat. The IV bag was connected to a pediatric infusion set (Terumo Corporation), a 27 G injection needle thereof was inserted into and fixed to the anterior chamber while slightly dripping the liquid from a needle tip. The model was created in the light phase (6:00 to 18:00) in consideration of the diurnal variation of the intraocular pressure.
4. After the needle was inserted into the anterior chamber, pressure (100 mmHg or more) was loaded and maintained in the anterior chamber by associating the reflux system.
5. After an ischemic load for 45 minutes, the injection needle and the like were removed, the inhalation anesthetic mask was removed, and the rat was sufficiently woken up under a warming mat, and then returned to the cage.
6. For 2 days after surgery, 10 mg/kg xylazine hydrochloride was intramuscularly administered as an analgesic for the purpose of alleviating the pain after the treatment.
1. Fourteen days after model creation, general anesthesia was performed with isoflurane (5%, oxygen:nitrous oxide=1:3), euthanasia was then performed by exsanguination, a suture was placed as a marker at the 12 o'clock position of the ocular conjunctiva, and eyeball enucleation was performed.
2. […]

[1] abbreviates: compound 9, 1 mg/mL eye drop, right eye, individual animals 301-310.
Where [2] appears, read: test groups 2 and 3 (test substance groups).

As for `CC[C@@]1(C)Oc2cc(ccc2O)C[C@H](NC)C(=O)N[C@@H](C(C)C)C(=O)N[C@@H]1C(=O)N[C@@H](CC(=O)O)C(=O)O` [Compound 9], the “Thickness of IPL (μm), Distance from Optic Disk 300 μm, Mean” value (compound 9 (pre), 1 mg/mL eye drop, right eye, 300 μm from optic disk, mean per animal, listed as compond 9) was 28.230 μm and 31.630 μm and 36.376 μm and 29.236 μm and 31.100 μm and 32.951 μm and 33.216 μm and 29.810 μm and 33.996 μm and 26.517 μm. In addition, under “compound 9 (pre), 1 mg/mL eye drop, right eye, 600 μm from optic disk, individual measurements per animal”, the “Thickness of INL (μm), Distance from Optic Disk 600 μm” value is 33.065 μm and 33.351 μm and 31.150 μm and 27.855 μm and 34.827 μm and 31.493 μm and 24.207 μm and 30.656 μm and 26.506 μm and 25.323 μm and 34.640 μm and 33.153 μm and 30.688 μm and 31.462 μm and 25.000 μm and 25.819 μm and 36.789 μm and 36.469 μm and 35.907 μm and 35.051 μm and 38.781 μm and 30.223 μm and 27.431 μm and 28.512 μm and 22.710 μm and 34.691 μm and 32.298 μm and 28.240 μm and 38.410 μm and 32.790 μm. Further, where the note is “compound 9 (pre), 1 mg/mL eye drop, right eye, 600 μm from optic disk, individual measurements per animal, listed as compond 9”, the “Thickness of IPL (μm), Distance from Optic Disk 600 μm” value was 35.272 μm and 36.967 μm and 39.787 μm and 38.516 μm and 42.129 μm and 44.421 μm and 35.566 μm and 35.907 μm and 34.333 μm and 35.134 μm and 37.963 μm and 38.006 μm and 42.772 μm and 42.744 μm and 37.116 μm and 32.671 μm and 45.118 μm and 45.778 μm and 34.473 μm and 36.322 μm and 37.125 μm and 37.847 μm and 44.472 μm and 36.393 μm and 35.013 μm and 40.678 μm and 44.362 μm and 37.009 μm and 45.280 μm and 36.469 μm. Under “compound 9 (pre), 1 mg/mL eye drop, right eye, 600 μm from optic disk, mean per animal”, the “Thickness of INL (μm), Distance from Optic Disk 600 μm, Mean” value is 35.066 μm and 29.743 μm and 31.250 μm and 27.792 μm and 24.846 μm and 34.161 μm and 31.483 μm and 26.353 μm and 37.223 μm and 34.583 μm. The “Thickness of IPL (μm), Distance from Optic Disk 600 μm, Mean” value (compound 9 (pre), 1 mg/mL eye drop, right eye, 600 μm from optic disk, mean per animal, listed as compond 9) is 36.455 μm and 38.717 μm and 43.674 μm and 35.955 μm and 34.827 μm and 38.882 μm and 43.293 μm and 35.599 μm and 45.392 μm and 35.755 μm. Where the note is “compound 9 (pre), 1 mg/mL eye drop, right eye, 900 μm from optic disk, individual measurements per animal”, the “Thickness of INL (μm), Distance from Optic Disk 900 μm” value is 34.804 μm and 34.579 μm and 36.245 μm and 30.909 μm and 31.452 μm and 30.862 μm and 27.037 μm and 29.926 μm (2×) and 22.638 μm and 25.416 μm and 27.482 μm and 24.116 μm and 23.512 μm and 24.261 μm and 34.939 μm and 35.346 μm and 31.197 μm and 28.785 μm and 32.162 μm and 30.368 μm and 28.858 μm and 27.378 μm and 29.877 μm and 36.469 μm and 34.623 μm and 36.346 μm and 31.402 μm and 31.035 μm and 29.653 μm. For the same molecule, the “Thickness of IPL (μm), Distance from Optic Disk 900 μm” value (compound 9 (pre), 1 mg/mL eye drop, right eye, 900 μm from optic disk, individual measurements per animal, listed as compond 9) is 36.789 μm and 36.607 μm and 39.836 μm and 44.120 μm and 43.136 μm and 43.354 μm and 44.421 μm and 42.075 μm and 41.663 μm and 37.132 μm and 35.896 μm and 35.907 μm and 36.540 μm and 39.019 μm and 40.323 μm and 10.804 μm and 39.318 μm and 42.252 μm and 44.289 μm and 46.476 μm and 47.334 μm and 41.468 μm and 39.312 μm and 40.445 μm and 49.477 μm and 48.242 μm and 50.923 μm and 38.230 μm and 37.912 μm and 42.098 μm. The “Thickness of INL (μm), Distance from Optic Disk 900 μm, Mean” value (compound 9 (pre), 1 mg/mL eye drop, right eye, 900 μm from optic disk, mean per animal) is 35.209 μm and 31.074 μm and 28.963 μm and 25.179 μm and 23.963 μm and 33.827 μm and 30.438 μm and 28.704 μm and 35.813 μm and 30.697 μm. Moreover, the “Thickness of IPL (μm), Distance from Optic Disk 900 μm, Mean” value (compound 9 (pre), 1 mg/mL eye drop, right eye, 900 μm from optic disk, mean per animal, listed as compond 9) was 37.744 μm and 43.537 μm and 42.720 μm and 36.312 μm and 38.627 μm and 40.791 μm and 46.033 μm and 40.408 μm and 49.547 μm and 39.413 μm. Besides, under setting [1], the “Thickness of ONL, distance from optic disk 300 μm (single measurement)” value is 29.809 μm and 32.509 μm and 28.214 μm and 43.038 μm and 41.873 μm and 42.494 μm and 36.113 μm and 33.931 μm and 32.522 μm and 36.780 μm and 37.800 μm and 37.520 μm and 42.742 μm and 39.019 μm and 43.913 μm and 40.612 μm and 41.912 μm and 42.252 μm and 45.276 μm and 46.187 μm (2×) and 47.148 μm and 61.386 μm and 56.945 μm and 55.989 μm and 51.520 μm and 53.774 μm and 52.512 μm and 40.451 μm and 43.373 μm; the “Thickness of ONL, distance from optic disk 600 μm (single measurement)” value was 30.220 μm and 32.139 μm and 47.765 μm and 48.521 μm (2×) and 35.360 μm and 35.504 μm and 40.331 μm and 37.009 μm and 49.431 μm and 49.964 μm and 42.863 μm and 40.883 μm and 44.362 μm and 46.081 μm and 44.179 μm and 42.769 μm and 44.033 μm and 41.550 μm and 42.129 μm and 31.379 μm and 50.234 μm and 36.932 μm and 39.277 μm and 47.914 μm and 40.524 μm and 43.548 μm and 48.975 μm and 41.515 μm and 45.970 μm; the “Thickness of ONL, distance from optic disk 900 μm (single measurement)” value is 26.908 μm and 28.742 μm and 28.226 μm and 52.295 μm and 46.680 μm and 52.512 μm and 29.438 μm and 34.522 μm and 34.086 μm and 36.727 μm and 35.966 μm and 41.192 μm and 41.663 μm and 39.411 μm and 42.337 μm and 37.593 μm and 40.812 μm and 38.516 μm and 42.098 μm and 44.443 μm and 46.165 μm and 42.932 μm and 37.619 μm and 42.252 μm and 39.713 μm and 39.071 μm and 42.321 μm and 37.664 μm and 38.550 μm and 42.169 μm. Besides, the “Inner plexiform layer (IPL) thickness compared with the control group, in words” value (test group 2 (preventive: eye drop on the 2 days before model creation)) was “statistically significant differences were observed at all measurement sites; also recorded: statistically significant effect of suppressing retinal damage by aqueous humor pressure load was observed at all measurement sites”. The “Inner plexiform layer (IPL) thickness compared with the control group, in words” value (test group 3 (therapeutic: eye drop for 13 days from the day after model creation)) was “statistically significant differences were observed at all measurement sites; also recorded: statistically significant effect of suppressing retinal damage by aqueous humor pressure load was observed at all measurement sites; also recorded: almost equivalent to that of the MK-801”. Under setting [2], the “Inner nuclear layer (INL) thickness compared with the control group, in words” value is “no obvious change was observed” and the “Outer nuclear layer (ONL) thickness compared with the control group, in words” value is given as “no obvious change was observed”.

The record behind these values is patent US20260091082A1, “CYCLIC PEPTIDE DERIVATIVE COMPOSITION FOR TREATING OR PREVENTING EYE DISEASE” (DKS Co. Ltd., priority 2022, published 2026).
